Laboratory results reported in article PMC7995547, “ω‐Imidazolyl‐alkyl derivatives as new preclinical drug candidates for treating non‐alcoholic steatohepatitis” (Physiological Reports, 2021).
Where “and” joins values, the source holds several entries; their conditions need not be identical. Equal values may be shown once.

What was measured:
Assay type in all cases: in vivo, Wistar rats
[1] = system: HFD‐induced NASH rat model (liver); assay: Oxidative stress (ROS status) in the liver, HFD-induced NASH rat model
Method: (§1) Studies were done using Wistar rats of female sex by the Institute of Pharmacology and Biochemistry at Minsk. The animals were 80–90 days old and weighed 180–200 g. They had free access to a liquid Lieber‐DeCarli (LDC) diet (Lieber et al., 2004) and were housed under standard conditions meaning a 12‐h light/dark cycle at 22 ± 2°C and 55 ± 5% humidity.
The rats were divided into 10 groups based on the diets and experimental substances administered (Figure 2).
(§2) Group 1 was designated as the first control group; it was fed a normal standard solid diet. Group 2, as the second control group, was fed a standard amount of fat as a part of the liquid “physiological,” non‐high fat LDC diet. All other groups received the liquid ‘disease‐causing’ LDC diet (Table 2), including a high content of unsaturated fatty acids.
(§3) Both LDC diets were in a liquid form as produced by ssniff‐Spezialdiäten GmbH, Soest (Germany). The feed was provided over the entire experimental period of 16 weeks; however, the corresponding experimental substances were only administered in the last four weeks (Figure 3).
(§4) The experimental substances I‐ol, I‐an, and UDCA were dissolved in a 0.8% aqueous HPMC gel to obtain the following concentrations: (1) I‐ol at 0.4, 4, and 40 mg/kg body weight (b.w.), (2) I‐an at 0.4, 4, and 40 mg/kg b.w., and (3) UDCA at 40 mg/kg b.w. The Group‐2 and −3 rats received only HPMC as placebo. Each test encompassed 6–8 rats that were put up in a separate cage. The rats were fed ad libitum, and their intake per cage was controlled daily. In order to ensure an exact daily reproducible dosage, the experimental substances or only HPMC was administered intragastrically via oral gavage. Basically, the drug therapy of a chronic disease is the more efficient the higher the adherence of the affected patients. This is generally higher with peroral administration than with any other form of application. At the end of the experiment, the animals were sacrificed under fasting conditions, by aorta dissection and exsanguination, after anesthetizing with an intraperitoneal injection of 5% pentobarbital solution.
The formation of ROS in the rat liver was measured using NADPH‐induced chemiluminescence as described by Müller‐Peddinghaus et al. (Muller‐Peddinghaus, 1987). Luminol and lucigenin were used for detecting the superoxide radical anion (SRA) and hydrogen peroxide. Liver pieces were homogenized in 0.1 M sodium phosphate buffer, pH 7.4; the homogenates were centrifuged at 9,000 × g at 0°C; and aliquots were used for subsequent measurements. Reduced glutathione (GSH) was estimated via a modified Ellman's method (Ellman, 1959), in which 0.2 mL of the liver homogenate supernatant was added to 1.6 mL of an EDTA/sodium phosphoric acid solution and the absorbance noted at 412 nm against blank values. GSH solution produced immediately before application served as the standard. The end products of the lipid peroxidation reaction were equivalent to the thiobarbituric acid‐reacting substances (TBARS), and their concentration was measured according to the method described by Buege et al. (Buege & Aust, 1978). Enzymatic activities of microsomal glutathione reductase (GR) and cytosolic glutathione peroxidase (GPx) were measured according to the methodology of Buko et al. (Buko et al., 2002). Catalase activity was determined according to the spectroscopic methodology described by Beers et al. (Beers & Sizer, 1952) using hydrogen peroxide as the substrate.

[2] = system: HFD‐induced NASH rat model (liver and serum); assay: End products of fat metabolism (liver and serum lipids), NASH rat model
Method: as §1, §2, §3, §4
(§5) The activities of the liver enzymes aspartate aminotransferase (AST), alanine aminotransferase (ALT), alkaline phosphatase (AP), and γ‐glutamyl transferase (γ‐GT) as well as bilirubin and triglyceride levels in the serum were determined as described by the instructions of BIO‐LA‐tests kit (Erba Lachema, Brno, Czech Republic).
Extraction of lipids was performed using a solvent composed of chloroform and methanol (2:1 v/v). Thin‐layer chromatography (TLC) was used to separate off neutral lipids and phospholipids. Silicagel G 60 plates (0.25 mm thick) were used. The lipids were separated by ascending chromatography in a system composed of hexane:diethylic ether:glacial acetic acid (73:25:2; v/v/v). They were visualized by iodine vapor and the spots corresponding to triglycerides and cholesterol were scraped off and eluted with methanol for spectrophotometric evaluation. Triglyceride and cholesterol levels were determined using the BIO‐LA‐test kit (Erba Lachema, Brno, Czech Republic). Phospholipid concentration was determined by measuring the levels of phosphomolybdate using an inorganic phosphate reagent containing molybdate (Findlay & Evans, 1987). VLDL level was determined by using the manganese precipitation method (Burstein & Scholnick, 1973) after partial modification (Hirano et al., 2003).

[3] = system: HFD‐induced NASH rat model (serum); assay: Liver enzyme activities and bilirubin in serum, NASH rat model
Method: as §1, §2, §3, §4, §5

[4] = system: HFD‐induced NASH rat model (liver); assay: Liver histopathology, semi‐quantitative evaluation, NASH rat model; set-up: key to Steatosis score / Balooning score: 0, none; 1, ≤25%; 2, 26–50%; 3, ≥51–75% of liver parenchyma; details: for Balooning score / Inflammation score / Steatosis score: H.E.‐stained liver slices
Method: as §1, §2, §3, §4
Pieces of liver tissue measuring 1 × 2 × 0.5 mm were chosen randomly and fixed for a week in the mixture of 1% formaldehyde and 1% paraformaldehyde in Sorensen's phosphate buffer (pH 7.4) (Morphisto GmbH, Frankfurt/Main). After this the pieces were kept in 2.5% glutaraldehyde in same buffer, rinsed and then post‐fixed in 1% solution of osmium tetroxide on the Sorensen's phosphate buffer (pH 7.4). After fixation, the liver samples were dehydrated and embedded in the pre‐polymerized mixture of methyl methacrylate and butyl methacrylate (1:4, v/v) containing 2,4‐dichlorbenzoyl peroxide as a catalyst.
[…] A semi‐quantitative evaluation of the sections was performed according to the procedure described by Koppe et al. (Koppe et al., 2004).

[5] = liver, average over doses (I‐ol, I‐an), UDCA 40 mg/kg b.w.
[6] = liver, highest concentration (40 mg/kg b.w.)
[7] = average over doses (I‐ol, I‐an), UDCA 40 mg/kg b.w.
[8] = average over doses, UDCA 40 mg/kg b.w.
[9] = serum, average over doses (I‐ol, I‐an), UDCA 40 mg/kg b.w.
[10] = serum, number: highest concentration (40 mg/kg b.w.), words: compound overall

OCCCCCCCCCCCCn1ccnc1 [I‐ol, 12‐imidazolyl‐1‐dodecanol]
Dose dependence of the effect on hydrogen peroxide level ([1]; 0.4, 4, 40 mg/kg b.w.): strong, very highly significant (p < 0.001), linear, dose‐dependent effect
Dose dependence of the effect on SRA level ([1]; 0.4, 4, 40 mg/kg b.w., Pearson correlation / linear regression): strong, very highly significant (p < 0.001), linear, dose‐dependent effect
Increase in GR activity compared to disease group ([1]; liver, I‐ol, I‐an groups overall, UDCA 40 mg/kg b.w.): 28%
Decrease in SRA level compared to disease group ([1]; liver, average over 0.4, 4, 40 mg/kg b.w. (I‐ol, I‐an), UDCA 40 mg/kg b.w., oral gavage daily, last 4 of 16 weeks HFD): 21%
Decrease in TBARS level compared to disease group [1, 5]: 38%
Reduction of the effect of HFD on the SRA level [1, 5]: 60%
Reduction of the effect of HFD on the TBARS level [1, 5]: 87%
Effect on GSH level (in words) ([1]; liver, compound overall): non‐significant trend toward an increasing GSH level
Decrease in hydrogen peroxide level compared to disease group [1, 6]: 50%
Hydrogen peroxide level below the reference values of group 1 [1, 6]: 16%
SRA level below the reference value of control group 1 [1, 6]: 24%
Effect of HFD nullified, GR activity increased by (on an average) ([1]; liver, relative to the effect of HFD): 113%
Serum LDL cholesterol below the reference value of group 1 ([2]; average over doses): 11%
Decrease in liver triglyceride levels compared to disease group [2, 7]: 18%
Reduction of the effect of HFD on liver triglyceride levels [2, 7]: 41%
Decrease in liver phospholipid levels compared to disease group [2, 8]: no therapeutic effect
Decrease in serum LDL cholesterol [2, 8]: 28%
Decrease in serum triglyceride levels compared to disease group [2, 8]: no therapeutic effect
Reduction of serum VLDL level ([2]; medium concentration (4 mg/kg b.w.)): 19%
Liver cholesterol level below the reference value of group 1 ([2]; medium dose (4 mg/kg b.w.)): 7%
Reduction of liver cholesterol level compared to disease group ([2]; medium dose (4 mg/kg b.w.)): 17%
Dose dependence of the effect on γ‐GT activity ([3]; 0.4, 4, 40 mg/kg b.w.): moderate but very highly significant (p < 0.001), linear, dose‐dependent effect
Serum bilirubin below the levels measured in the disease group and the two control groups ([3]; average over doses): more than 10%
Decrease in serum bilirubin level compared to disease group [3, 8]: 14%
Decrease in γ‐GT enzymatic activity compared to disease group [3, 9]: 34%
Reduction of the effect of HFD on γ‐GT activity [3, 9]: 84%
Decrease in ALT enzymatic activity compared to disease group ([3]; serum, highest concentrations (40 mg/kg b.w.)): 16%
Reduction of the effect of HFD on ALT activity ([3]; serum, highest concentrations (40 mg/kg b.w.), b87: dose not stated): 55% and ~70%
Decrease in AP enzymatic activity compared to disease group [3, 10]: no therapeutic effect
Decrease in AST enzymatic activity compared to disease group [3, 10]: no therapeutic effect
Balooning score ([4]; 0.4 mg/kg b.w. + HFD): 1 (1, ≤25%)
Inflammation score ([4]; 0.4 mg/kg b.w. + HFD): 1–2
Steatosis score ([4]; 0.4 mg/kg b.w. + HFD): 0–1
Balooning score ([4]; 4.0 mg/kg b.w. + HFD): 1 (1, ≤25%)
Inflammation score ([4]; 4.0 mg/kg b.w. + HFD): 1 (1, <5 signs of inflammation)
Steatosis score ([4]; 4.0 mg/kg b.w. + HFD): 0
Balooning score ([4]; 40.0 mg/kg b.w. + HFD): 1 (1, ≤25%)
Inflammation score ([4]; 40.0 mg/kg b.w. + HFD): 1 (1, <5 signs of inflammation)
Steatosis score ([4]; 40.0 mg/kg b.w. + HFD): 0–1
Effect on liver histology (in words) ([4]; animals with NASH (HFD)): dose‐dependent reduction of the pathological signs
